These results are taken from publication PMC10731637, “Design, Synthesis, and Biological Studies of Flavone-Based Esters and Acids as Potential P450 2A6 Inhibitors” (Chemical Research in Toxicology, 2023).

Each structure is given as a SMILES string. pIC50: −log10 of the molar value.

This assay addresses T1, Cytochrome P450 2A6 (CYP2A6) (Homo sapiens, UniProt P11509).
T1 sequence (P11509 1-494): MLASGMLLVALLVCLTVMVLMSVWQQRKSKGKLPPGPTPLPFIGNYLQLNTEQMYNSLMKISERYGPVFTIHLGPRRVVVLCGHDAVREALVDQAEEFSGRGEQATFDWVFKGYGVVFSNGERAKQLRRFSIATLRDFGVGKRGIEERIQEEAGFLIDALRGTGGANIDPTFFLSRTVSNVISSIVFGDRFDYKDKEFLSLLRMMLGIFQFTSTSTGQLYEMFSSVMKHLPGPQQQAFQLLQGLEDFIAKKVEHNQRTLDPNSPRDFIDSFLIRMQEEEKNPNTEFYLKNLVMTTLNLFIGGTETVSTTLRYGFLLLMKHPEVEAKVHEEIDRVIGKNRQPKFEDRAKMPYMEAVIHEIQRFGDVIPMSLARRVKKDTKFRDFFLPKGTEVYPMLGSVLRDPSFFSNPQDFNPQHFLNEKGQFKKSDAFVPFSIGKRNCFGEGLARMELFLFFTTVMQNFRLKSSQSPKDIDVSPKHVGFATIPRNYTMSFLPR
Description: Vivid CYP450 fluorescence inhibition assay with CYP2A6 baculosomes, 10-point dose-response. It is filed as biochemical.
In general, pIC50 refers to −log10 of the IC50, conventionally taken in molar units. Low values mean a large IC50, high ones a small IC50. `CCOC(=O)COc1ccccc1-c1cc(=O)c2ccccc2o1` [compound 1, Ethyl 2-(2-(4-Oxo-4H-chromen-2-yl)phenoxy)acetate] had a pIC50 of 4.42.

As to `CCOC(=O)COc1c(-c2ccccc2)oc2ccccc2c1=O` [compound 2, Ethyl 2-((4-Oxo-2-phenyl-4H-chromen-3-yl)oxy)acetate], the pIC50 was 5.34.

Turning to `O=C(O)COc1ccccc1-c1cc(=O)c2ccccc2o1` [compound 6, 2-(2-(4-Oxo-4H-chromen-2-yl)phenoxy)acetic Acid], the pIC50 was 5.81.
